Test results taken from ChEMBL document CHEMBL5113384, “Small-molecule inhibitors targeting small ubiquitin-like modifier pathway for the treatment of cancers and other diseases” (Eur J Med Chem, 2022).

Assays:
[1] = Inhibition of His-tagged SUMO1/SUMO E1 /GST-tagged Aos1/Uba2/His-tagged Ubc9 (unknown origin)-mediated recombinant His/T7-tagged RanGAP1-C-terminal fragment SUMOylation assessed as change in chemical shift perturbation by 1H,15N HSQC NMR spectroscopy analysis; parameters: species or system Homo sapiens
[2] = Inhibition of His-tagged SUMO1/SUMO E1 /His-tagged Ubc9 (unknown origin)-mediated SUMOylation using FL-AR as substrate incubated for 90 mins in presence of ATP by Western blot analysis; parameters: species or system Homo sapiens
[3] = (§1) Inhibition of His-tagged SUMO1/GST-tagged Aos1/Uba2/His-tagged Ubc9 (unknown origin)-mediated recombinant His/T7-tagged RanGAP1-C-terminal fragment SUMOylation expressed in Escherichia coli BL21 (DE3) assessed as reduction in Ubc9-SUMO level in presence of ATP by SDS-PAGE based immunoblotting analysis; parameters: species or system Homo sapiens
[4] = Inhibition of His-tagged SUMO/SAE /Ubc9 (unknown origin)-mediated recombinant 6His-tagged RanGAP1 SUMOylation in presence of ATP by HTRF analysis; parameters: species or system Homo sapiens
[5] = Inhibition of SUMO E1 (unknown origin); parameters: species or system Homo sapiens
[6] = Inhibition of Plasmodium falciparum SENP1 using QTGG-AFC as substrate by fluorescence based analysis
[7] = Inhibition of His-tagged SUMO1/SUMO E1 /GST-tagged Aos1/Uba2/His-tagged Ubc9 (unknown origin)-mediated recombinant His/T7-tagged RanGAP1-C2-terminal fragment SUMOylation in presence of ATP by SDS-PAGE based immunoblotting analysis; parameters: species or system Homo sapiens
[8] = as §1, with “SUMO1/SUMO E1 /GST-tagged” for “SUMO1/GST-tagged”, “level measured upto 2 hrs” for “level”, “fluorescence polarization” for “SDS-PAGE based immunoblotting”; parameters: species or system Homo sapiens
NEDD8 activating enzyme = molecular target: T1, NEDD8 activating enzyme (Homo sapiens, UniProt Q8TBC4); test: Inhibition of NAE (unknown origin); format: protein-complex assay
T1 sequence (Q8TBC4 whole entry): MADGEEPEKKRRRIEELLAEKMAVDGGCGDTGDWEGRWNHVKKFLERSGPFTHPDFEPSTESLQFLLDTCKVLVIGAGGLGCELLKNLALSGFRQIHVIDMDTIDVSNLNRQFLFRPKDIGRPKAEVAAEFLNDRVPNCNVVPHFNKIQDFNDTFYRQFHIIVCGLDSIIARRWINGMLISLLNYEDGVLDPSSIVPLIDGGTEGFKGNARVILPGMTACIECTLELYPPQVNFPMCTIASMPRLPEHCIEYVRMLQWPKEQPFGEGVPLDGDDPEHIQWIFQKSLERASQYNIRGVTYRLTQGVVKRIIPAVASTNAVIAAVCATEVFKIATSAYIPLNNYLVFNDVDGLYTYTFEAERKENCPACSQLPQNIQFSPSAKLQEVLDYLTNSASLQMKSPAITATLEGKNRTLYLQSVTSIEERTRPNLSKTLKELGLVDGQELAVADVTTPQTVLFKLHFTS
T1 sequence (Q13564 whole entry): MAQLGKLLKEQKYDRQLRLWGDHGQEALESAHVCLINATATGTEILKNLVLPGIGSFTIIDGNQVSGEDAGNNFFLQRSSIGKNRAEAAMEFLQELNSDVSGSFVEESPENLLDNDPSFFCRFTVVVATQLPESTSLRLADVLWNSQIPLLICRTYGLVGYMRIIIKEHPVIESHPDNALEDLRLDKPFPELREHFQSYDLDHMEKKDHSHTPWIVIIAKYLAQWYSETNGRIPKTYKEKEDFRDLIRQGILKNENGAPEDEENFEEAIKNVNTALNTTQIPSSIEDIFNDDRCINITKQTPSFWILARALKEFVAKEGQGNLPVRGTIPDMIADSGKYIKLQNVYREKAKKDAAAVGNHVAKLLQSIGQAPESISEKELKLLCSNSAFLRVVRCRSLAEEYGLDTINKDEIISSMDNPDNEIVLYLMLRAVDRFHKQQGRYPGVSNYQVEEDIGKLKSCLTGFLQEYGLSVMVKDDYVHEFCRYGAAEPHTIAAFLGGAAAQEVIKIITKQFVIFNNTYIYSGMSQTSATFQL

[9] = Inhibition of UAE (unknown origin); parameters: species or system Homo sapiens
[10] = Inhibition of His-tagged SUMO1/SUMO E1 /His-tagged Ubc9 (unknown origin)-mediated […] SUMOylation using FL-AR as substrate incubated for 90 mins in presence of ATP by peptide microarray-based fluorescence assay; parameters: species or system Homo sapiens
LNCaP = test: Antiproliferative activity against androgen-sensitive human LNCaP cells assessed as cell growth inhibition incubated for 48 hrs by MTT assay; format: functional, cell-based
PC-3 = test: Antiproliferative activity against human PC-3 cells assessed as cell growth inhibition incubated for 48 hrs by MTT assay; format: functional, cell-based; conditions: PC-3, 48 h

## Oc1ccccc1-c1ccccc1O
[1]
  IC50: 5800 µM

## O=c1cc(-c2ccc(O)c(O)c2O)oc2ccccc12
[2]
  IC50: 6 µM

## C[C@@H]1O[C@@H](O[C@@H]2C[C@H](c3ccc4c(c3O)C(=O)C3=C(C4=O)[C@@]4(O[C@H]5CC[C@H](O)[C@H](C)O5)C(=O)C[C@](C)(O)C[C@@]4(O)C=C3)O[C@H](C)[C@H]2O)CC[C@@H]1O[C@H]1C[C@@H](O)[C@H](O)[C@@H](C)O1
[3]
  IC50: 11.7 µM

## COC(=O)C1=C(C(=O)OC)[C@@]2([C@@H](Cc3ccc(C)cc3)Nc3ccccc3)C=C[C@@H]1O2
[4]
  IC50: 0.2 µM

## NS(=O)(=O)OC[C@@H]1C[C@@H](n2ccc3c(NC4CCc5ccccc54)ncnc32)C[C@@H]1O (stereo partly drawn)
[5]
  IC50: 8.2 µM

## O=C(O)CN(NC(=O)c1ccc(CNC(=O)c2cccc(C(=O)O)c2)cc1)C(=O)[C@H]1O[C@@H]1C(=O)C(Cc1cccc2ccccc12)Cc1cccc2ccccc12
[6]
  IC50: 17.9 µM

## CCOC(=O)CCc1ccc(-c2ccccc2O)c(O)c1
[1]
  IC50: 3000 µM

## CO/C(=C/C(=O)O)[C@H]1c2cc3ccc(-c4ccc5cc6c(c(O)c5c4O)C(=O)C[C@@](C)(O)[C@H]6/C(=C\C(=O)O)OC)c(O)c3c(O)c2C(=O)C[C@@]1(C)O
[7]
  IC50: 4.4 µM

## COc1ccc(NC(=O)[C@H](CCCN)Nc2cc(C)nc(NCCc3cccs3)n2)cc1
[8]
  IC50: 12.5 µM

## NS(=O)(=O)OC[C@@H]1C[C@@H](Nc2ncncc2C(=O)c2ccn(Cc3cccc(Br)c3)n2)C[C@@H]1O
[5]
  IC50: 0.003 µM
NEDD8 activating enzyme
  IC50: 32 µM
[9]
  IC50: > 100 µM

## O=C(O)c1cccc(C(=O)NCc2ccc(C(=O)NNC(=O)[C@H]3O[C@@H]3C(=O)C(Cc3cccc4ccccc34)Cc3cccc4ccccc34)cc2)c1
[6]
  IC50: 16.2 µM

## c1coc(-c2cc(CNc3ncnc4sc5cnccc5c34)no2)c1
[10]
  IC50: 74 µM

## CCCCCCCCCCCCCCCc1cccc(O)c1C(=O)O [ANACARDIC ACID]
[3]
  IC50: 2.2 µM

## CCCCCC/C=C\CCCCCCCc1cccc(O)c1C(=O)O [GINGKOLIC ACID]
[3]
  IC50: 3 µM

## CC(C)[C@]12O[C@H]1[C@@H]1O[C@]13[C@]1(O[C@H]1C[C@H]1C4=C(CC[C@@]13C)C(=O)OC4)[C@@H]2O [TRIPTOLIDE]
LNCaP
  IC50: 0.0097 µM
PC-3
  IC50: 0.0203 µM
